Assay results reported in paper PMC5384001 (Scientific Reports, 2017).
Several values for one entry are separate records, joined by “and”; a condition that tells them apart may be missing. Equal values may be shown once.

Experiments:
[1] = target: GluN1 LBD; parameters: method as in PMID 12805203; conditions: cited from earlier work
[2] = target: T1, GluD2-Lc-(HS1)GluN1 (Rattus norvegicus, UniProt Q63226, A654T/D542Y/S544G/Y543Q); assay: Two-electrode voltage clamp in Xenopus oocytes, inhibition of spontaneous currents; type: cell-based; conditions: fraction of spontaneous current inhibited by saturating D-serine
T1 construct: the function of full-length receptors as well, we introduced them into the GluD2 lurcher mutant (GluD2-Lc); expressed in transfected cells; host or cells: Xenopus laevis oocytes injected with cRNA
T1 sequence (Q63226 24-1007 D542Y/Y543Q/S544G/A654T): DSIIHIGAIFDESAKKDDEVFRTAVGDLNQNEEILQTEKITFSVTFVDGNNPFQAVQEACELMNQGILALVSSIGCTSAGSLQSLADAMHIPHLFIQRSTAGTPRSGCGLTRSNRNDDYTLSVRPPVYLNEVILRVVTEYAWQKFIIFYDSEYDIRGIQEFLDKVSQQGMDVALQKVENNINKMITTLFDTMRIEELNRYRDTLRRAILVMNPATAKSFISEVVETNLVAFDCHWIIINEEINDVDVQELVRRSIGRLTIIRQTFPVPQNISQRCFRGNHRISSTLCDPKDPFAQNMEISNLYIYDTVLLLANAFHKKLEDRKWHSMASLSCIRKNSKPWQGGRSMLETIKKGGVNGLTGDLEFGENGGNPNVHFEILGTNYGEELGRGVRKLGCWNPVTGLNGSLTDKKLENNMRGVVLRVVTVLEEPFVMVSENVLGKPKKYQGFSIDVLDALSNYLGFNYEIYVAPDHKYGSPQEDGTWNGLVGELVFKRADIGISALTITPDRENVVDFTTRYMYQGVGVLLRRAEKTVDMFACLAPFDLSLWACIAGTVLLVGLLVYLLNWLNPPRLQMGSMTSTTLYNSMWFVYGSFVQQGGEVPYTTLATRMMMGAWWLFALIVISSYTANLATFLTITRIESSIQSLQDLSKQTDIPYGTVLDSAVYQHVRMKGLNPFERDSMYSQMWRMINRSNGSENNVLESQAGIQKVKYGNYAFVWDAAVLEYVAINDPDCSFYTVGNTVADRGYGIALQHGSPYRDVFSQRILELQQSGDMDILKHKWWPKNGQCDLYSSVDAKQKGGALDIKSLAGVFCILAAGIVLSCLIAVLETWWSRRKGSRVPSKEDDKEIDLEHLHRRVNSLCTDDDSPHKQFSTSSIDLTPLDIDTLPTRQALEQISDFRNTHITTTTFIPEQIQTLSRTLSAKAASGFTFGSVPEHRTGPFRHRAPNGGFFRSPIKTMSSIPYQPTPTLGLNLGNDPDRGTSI

N[C@H](CO)C(=O)O [D-serine]
Kd [1]: 7 µM | D-serine efficacy Mean ± SEM [2]: 29% and 29.1 ± 1.1%
